# In patent US20220000880A1, “METHOD AND COMPOSITION EMBODIMENTS FOR TREATING ACUTE MYELOID LEUKEMIA” (Rigel Pharmaceuticals, Inc., priority 2018, published 2022):
# Experiments:
# AML cell line xenograft = assay: mouse model xenografted with an AML cell line, tumor growth; assay type: in vivo; conditions: intraperitoneal injections; subcutaneous tumors ≥250 mm^3
# From the text: The activity of 6-((5-fluoro-2-((3,4,5-trimethoxyphenyl)amino)pyrimidin-4-yl)amino)-2,2-dimethyl-2H-pyrido[3,2-b][1,4]oxazin-3(4H)-one (or a prodrug thereof), alone, also can be evaluated. To do so, activity of 6-((5-fluoro-2-((3,4,5-trimethoxyphenyl)amino)pyrimidin-4-yl)amino)-2,2-dimethyl-2H-pyrido[3,2-b][1,4]oxazin-3(4H)-one can be tested in the appropriate mouse model xenografted with an AML cell line. Tumors can be injected subcutaneously (e.g., in the right flank) and allowed to grow until they reached an appropriate size (e.g., ≥250 mm^3). Intraperitoneal injections can be used to introduce the treatment. […] In some examples, significant differences in tumor volume between mice receiving 6-((5-fluoro-2-((3,4,5-trimethoxyphenyl)amino)pyrimidin-4-yl)amino)-2,2-dimethyl-2H-pyrido[3,2-b][1,4]oxazin-3(4H)-one alone and mice receiving 6-((5-fluoro-2-((3,4,5-trimethoxyphenyl)amino)pyrimidin-4-yl)amino)-2,2-dimethyl-2H-pyrido[3,2-b][1,4]oxazin-3(4H)-one in combination with venetoclax can be observed.
# [1] = test system: AML samples expressing high levels of HOXA9 and MEIS1; assay: apoptosis measurement (Annexin V) in AML samples; assay type: cell-based, human; conditions: 1 μM, 5 μM and 10 μM for 24 hours; alone or in combination
# Experimental: Isolation of bone marrow mononuclear cells from human bone marrow aspirates can be achieved by Ficoll density centrifugation (400×g, RT, 45 min). CD34+ bone marrow mononuclear cells can be isolated using the human CD34 MultiSort Kit (Miltenyi Biotec). […] The cells can be passed through a mesh to remove cell clumps and can then be incubated in MACS buffer, which can be supplemented with FcR Blocking Reagent, and CD34 MultiSort MicroBeads for a particular time and at a particular temperature (e.g., 30 minutes at 4° C.). Excess beads are removed by washing and then magnetic separation using LS columns is carried out. After elution, cells are washed once in MACS buffer and can be resuspended in SFEM supplemented with diverse cytokines. Flow cytometry can be used to assess the purity of the isolated cells. […] The Annexin V Apoptosis Detection Kit I (BD Bioscience) can be used to detect apoptotic cell death. Cells are harvested and washed once with PBS, and can be resuspended in Annexin V binding buffer (200 μl 1×) containing 5 μl Annexin-PE or Annexin-APC and incubated at room temperature in the dark. After washing (e.g., once with 1× Annexin binding buffer), cells are resuspended in 1× Annexin V binding buffer containing 7-AAD (5 μl) and incubated at room temperature in the dark. 1× Annexin V binding buffer (200 μl) is added and cells are analysed using a BD LSRFortessa flow cytometer.
# AML cell lines = assay: cytotoxicity by Annexin V/PI staining against a panel of AML cell lines; assay type: cell-based; set-up: cytotoxic activity, agent alone: dose or concentration left out as unconfirmed
# Experimental: In this example, the ability of 6-((5-fluoro-2-((3,4,5-trimethoxyphenyl)amino)pyrimidin-4-yl)amino)-2,2-dimethyl-2H-pyrido[3,2-b][1,4]oxazin-3(4H)-one (or a prodrug thereof) to synergistically enhance cytotoxic activity of venetoclax in AML cell lines is evaluated. Cytotoxic effects of venetoclax can be determined using Annexin V/PI staining against a panel of different AML cell lines.
# HOXA9/MEIS1 cells = assay: time-lapse microscopy and single-cell tracking of cell fate; assay type: cell-based
# From the text: The effect of Syk inhibition in HOXA9 and HOXA9/MEIS1 cells by monitoring the fate of individual cells and their progeny by time-lapse microscopy and single-cell tracking also can be carried out.
# [2] = test system: mice transplanted with HOXA9/MEIS1 cells; assay: mice transplanted with HOXA9/MEIS1 cells treated with fostamatinib-impregnated feed; assay type: in vivo, mouse; conditions: feed at 3 g/kg, 5 g/kg or 8 g/kg
# Experimental: In this example, mice transplanted with HOXA9 MEIS1 or HOXA9 cells are treated with fostamatinib using feed impregnated with fostamatinib at 3 g/kg, 5 g/kg or 8 g/kg (AIN-76A rodent diet).
smiles,measurement,setting,value
"COc1cc(Nc2ncc(F)c(Nc3ccc4c(n3)NC(=O)C(C)(C)O4)n2)cc(OC)c1OC [6-((5-fluoro-2-((3,4,5-trimethoxyphenyl)amino)pyrimidin-4-yl)amino)-2,2-dimethyl-2H-pyrido[3,2-b][1,4]oxazin-3(4H)-one]","tumor growth, compound alone",AML cell line xenograft,partially inhibit tumor growth
same,sensitivity of AML samples with high HOXA9 and MEIS1 compared with samples with weak MEIS1 expression,[1],more sensitive
same,effect on cytotoxic activity of venetoclax,AML cell lines; cells treated at different concentrations for e.g. 2 hours,markedly increase the cytotoxic activity of venetoclax
same,cytotoxic effects on its own,AML cell lines; compound (or prodrug) alone,absence of any substantial cytotoxic effects
same,cell death compared with cells treated with DMSO,HOXA9/MEIS1 cells,significant increase
"COc1cc(Nc2ncc(F)c(Nc3ccc4c(n3)N(COP(=O)(O)O)C(=O)C(C)(C)O4)n2)cc(OC)c1OC [fostamatinib, 6-((5-fluoro-2-((3,4,5-trimethoxyphenyl)amino)pyrimidin-4-yl)amino)-2,2-dimethyl-3-oxo-2,3-dihydro-4H-pyrido[3,2-b][1,4]oxazin-4-yl)methyl dihydrogen phosphate]",survival of mice,"[2]; longer treatment (e.g., 20 days)",significantly prolong the survival
same,percentage of leukemic cells,[2]; one week of treatment,reduce the percentage of leukemic cells
"CC1(C)CCC(CN2CCN(c3ccc(C(=O)NS(=O)(=O)c4ccc(NCC5CCOCC5)c([N+](=O)[O-])c4)c(Oc4cnc5[nH]ccc5c4)c3)CC2)=C(c2ccc(Cl)cc2)C1 [venetoclax, reference compound]","cytotoxic activity, agent alone","AML cell lines; venetoclax alone, concentrations ranging",only modest activity
